The record followed here is patent US6448405B1, “Steroid receptor modulator compounds and methods” (Ligand Pharmaceuticals Incorporated, priority 1994, dated 2002).

Where two headings read alike, the source gives them in different places.

One assay deals with T1, human PR-B (Homo sapiens, UniProt P06401).
T1 construct: expressed in transfected cells; host or cells: CV-1 cells (African green monkey kidney fibroblasts), transient transfection
T1 sequence (P06401 1-933): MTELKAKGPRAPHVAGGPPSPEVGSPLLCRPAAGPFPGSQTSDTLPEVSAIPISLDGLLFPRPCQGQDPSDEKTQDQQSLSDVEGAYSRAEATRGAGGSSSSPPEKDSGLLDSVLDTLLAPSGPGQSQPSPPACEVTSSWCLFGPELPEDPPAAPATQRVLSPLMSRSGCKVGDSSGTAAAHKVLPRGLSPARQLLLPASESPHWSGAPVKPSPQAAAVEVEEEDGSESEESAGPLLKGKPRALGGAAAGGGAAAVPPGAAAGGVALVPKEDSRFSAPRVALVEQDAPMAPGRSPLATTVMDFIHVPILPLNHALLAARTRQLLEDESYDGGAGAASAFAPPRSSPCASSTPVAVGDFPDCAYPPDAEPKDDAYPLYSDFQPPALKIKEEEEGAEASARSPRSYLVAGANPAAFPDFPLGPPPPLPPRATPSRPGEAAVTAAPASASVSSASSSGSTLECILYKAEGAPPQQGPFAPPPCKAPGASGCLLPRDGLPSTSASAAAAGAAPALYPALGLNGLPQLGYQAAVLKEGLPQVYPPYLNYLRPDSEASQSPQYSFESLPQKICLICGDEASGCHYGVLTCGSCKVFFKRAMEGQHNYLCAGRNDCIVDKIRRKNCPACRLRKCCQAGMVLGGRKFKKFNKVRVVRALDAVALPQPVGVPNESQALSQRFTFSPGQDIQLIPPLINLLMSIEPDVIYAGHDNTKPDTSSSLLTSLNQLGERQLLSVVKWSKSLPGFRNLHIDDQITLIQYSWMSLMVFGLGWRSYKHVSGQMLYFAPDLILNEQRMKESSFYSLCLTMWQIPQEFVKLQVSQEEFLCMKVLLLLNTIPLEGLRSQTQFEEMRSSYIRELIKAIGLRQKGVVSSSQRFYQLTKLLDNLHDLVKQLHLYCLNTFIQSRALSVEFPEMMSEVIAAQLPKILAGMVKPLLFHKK
As to the kind of experiment: Co-transfection assay, PR agonist and antagonist activity, CV-1 cells.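 As to all read-outs here: luciferase reporter driven by a hormone response element, co-transfected with human PR-B into CV-1 monkey kidney cells, agonists raise and antagonists lower the reporter signal.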 The conditions noted are these: for EC50: agonist mode, read-out: PR Agonist CV-1 Cells Potency. Type of assay: cell-based.

Assay [1] concerns the target T2, human progesterone receptor A form (PR-A) (Homo sapiens, UniProt P06401).
T2 sequence (P06401 1-769 isoform P06401-2): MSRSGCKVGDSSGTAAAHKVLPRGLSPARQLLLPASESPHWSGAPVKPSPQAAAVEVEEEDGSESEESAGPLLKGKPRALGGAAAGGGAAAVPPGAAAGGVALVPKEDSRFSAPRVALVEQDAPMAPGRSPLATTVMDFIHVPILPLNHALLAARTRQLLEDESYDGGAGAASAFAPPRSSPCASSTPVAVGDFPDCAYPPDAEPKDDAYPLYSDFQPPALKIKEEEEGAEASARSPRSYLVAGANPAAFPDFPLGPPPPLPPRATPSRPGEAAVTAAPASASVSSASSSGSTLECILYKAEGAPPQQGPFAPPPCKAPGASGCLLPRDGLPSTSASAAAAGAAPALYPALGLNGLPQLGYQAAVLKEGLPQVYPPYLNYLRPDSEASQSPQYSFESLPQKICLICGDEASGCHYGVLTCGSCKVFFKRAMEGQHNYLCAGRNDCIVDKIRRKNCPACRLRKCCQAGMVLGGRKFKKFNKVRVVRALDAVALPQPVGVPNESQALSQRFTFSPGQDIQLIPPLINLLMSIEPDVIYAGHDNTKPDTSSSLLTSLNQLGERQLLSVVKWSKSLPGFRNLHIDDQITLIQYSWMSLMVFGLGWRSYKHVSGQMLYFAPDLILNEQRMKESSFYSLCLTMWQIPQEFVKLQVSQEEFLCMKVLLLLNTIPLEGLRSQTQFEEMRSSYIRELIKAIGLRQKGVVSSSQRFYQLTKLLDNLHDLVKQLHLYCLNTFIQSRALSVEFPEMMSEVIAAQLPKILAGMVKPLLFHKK
As to the kind of experiment: PR binding assay, baculovirus extract, [3H] progesterone.

The mark [2] stands for this setting: read-out: PR Antagonist CV-1 Cells Potency.

On to `CC1(C)Nc2ccc3c(c2C(=O)C1(C)C)C(c1ccc(Cl)cc1)Oc1ccccc1-3` (racemic) [Compound 379, (R/S)-5-(4-Chlorophenyl)-1,2,3,4-tetrahydro-2,2,3,3-tetramethyl-5H-chromeno[3,4-f]-4-quinolinone], for which, at human PR-B, the “PR Agonist CV-1 Cells Efficacy (%)” value was “na (na = not active (i.e. efficacy or <20 and potency of >10,000))”; the “PR Antagonist CV-1 Cells Efficacy (%)” value was 87%; the EC50 was above 10000 nM. Besides, on human PR-B (setting [2]), the IC50 worked out at 350 nM. Further, the Ki in assay [1] (read-out: PR Binding Ki) turned out to be 25 nM.
Turning to `CCCCC1Oc2ccccc2-c2ccc3c(c21)C(C)C(O)(CCCC)C(C)(C)N3` (racemic) [Compound 385, (R/S)-3,5-Dibutyl-1,2,3,4-tetrahydro-3-hydroxy-2,2,4-trimethyl-5H-chromeno[3,4-f]quinoline], at human PR-B, the “PR Agonist CV-1 Cells Efficacy (%)” value turned out to be 27%, the “PR Antagonist CV-1 Cells Efficacy (%)” value turned out to be 45% and the EC50 amounted to 82 nM. The IC50 on human PR-B (setting [2]) was 2300 nM. In assay [1] (read-out: PR Binding Ki), the Ki came out at 31 nM.
`CC1C(=O)C(C)(C)Nc2ccc3c(c21)/C(=C/c1cccc(F)c1)Oc1ccccc1-3` (racemic) [Compound 389, (Z)-(R/S)-5-(3-Fluorobenzylidene)-1,2,3,4-tetrahydro-2,2,4-trimethyl-5H-chromeno[3,4-f]-3-quinolinone]: on human PR-B, the “PR Agonist CV-1 Cells Efficacy (%)” value was 133%; the “PR Antagonist CV-1 Cells Efficacy (%)” value was “na (na = not active (i.e. efficacy or <20 and potency of >10,000))”; the EC50 was 17 nM. On human PR-B (setting [2]), the IC50 is above 10000 nM. The Ki in assay [1] (read-out: PR Binding Ki) amounted to 4 nM.
On to `CCCO[C@@H]1[C@@H](C)c2c(ccc3c2[C@H](c2ccc(Cl)cc2)Oc2ccccc2-3)NC1(C)C` (racemic) [Compound 400, (R/S-3l,4u,5u)-5-(4-Chlorophenyl)-1,2,3,4-tetrahydro-3-propyloxy-2,2,4-trimethyl-5H-chromeno[3,4-f]quinoline], for which, on human PR-B, the “PR Agonist CV-1 Cells Efficacy (%)” value was “na (na = not active (i.e. efficacy or <20 and potency of >10,000))”; the “PR Antagonist CV-1 Cells Efficacy (%)” value was found to be 68%; the EC50 was above 10000 nM. In addition, on human PR-B (setting [2]), the IC50 came to 370 nM. In assay [1] (read-out: PR Binding Ki), the Ki was found to be 14 nM.
Regarding `CC1=CC(C)(C)Nc2ccc(-n3cnc(Cl)c3Cl)cc21` [Compound 103, 6-(4,5-Dichloroimidazol-1-yl)-1,2-dihydro-2,2,4-trimethylquinoline], at human PR-B, the “PR Agonist CV-1 Cells Efficacy (%)” value was “na (na = not active (i.e. efficacy or <20 and potency of >10,000))”; the “PR Antagonist CV-1 Cells Efficacy (%)” value came to 91%; the EC50 is above 10000 nM. For the same molecule, on human PR-B (setting [2]), the IC50 was found to be 780 nM. For the same molecule, in assay [1] (read-out: PR Binding Ki), the Ki was 372 nM.
With `CC1=CC(C)(C)Nc2ccc(-c3nn(C)cc3Br)cc21` [Compound 104, 6-(4-Bromo-1-methylpyrazol-3-yl)-1,2-dihydro-2,2,4-trimethylquinoline], on human PR-B, the “PR Agonist CV-1 Cells Efficacy (%)” value is 39%, the “PR Antagonist CV-1 Cells Efficacy (%)” value was found to be 71% and the EC50 turned out to be 2750 nM. The IC50 on human PR-B (setting [2]) came to 120 nM. In addition, in assay [1] (read-out: PR Binding Ki), the Ki was found to be 82 nM.
In the case of `CC1=CC(C)(C)Nc2ccc(-c3cccc(Cl)c3Cl)cc21` [Compound 109, 6-(2,3-Dichlorophenyl)-1,2-dihydro-2,2,4-trimethylquinoline], at human PR-B, the “PR Agonist CV-1 Cells Efficacy (%)” value was “na (na = not active (i.e. efficacy or <20 and potency of >10,000))”; the “PR Antagonist CV-1 Cells Efficacy (%)” value is on record as 87%; the EC50 was above 10000 nM. For the same molecule, at human PR-B (setting [2]), the IC50 was 138 nM. The Ki in assay [1] (read-out: PR Binding Ki) worked out at 23 nM.
Turning to `CC1=CC(C)(C)Nc2ccc3c(c21)/C(=C/c1ccccc1)Oc1ccccc1-3` [Compound 220, (Z)-5-Benzylidene-1,2-dihydro-2,2,4-trimethyl-5H-chromeno[3,4-f]quinoline], at human PR-B, the IC50 was above 10000 nM; the “PR Antagonist CV-1 Cells Efficacy (%)” value is “na (key: na = not active (i.e. efficacy or <20 and potency of >10,000))”; the EC50 is 33 nM. The same molecule displayed a Ki in assay [1] of 1 nM.
As for `CC1=CC(C)(C)Nc2ccc3c(c21)/C(=C/c1ccc(F)cc1)Oc1ccccc1-3` [Compound 221, (Z)-5-(4-Fluorobenzylidene)-1,2-dihydro-2,2,4-trimethyl-5H-chromeno[3,4-f]quinoline], on human PR-B, the IC50 was above 10000 nM; the “PR Antagonist CV-1 Cells Efficacy (%)” value is “na (key: na = not active (i.e. efficacy or <20 and potency of >10,000))”; the EC50 is 117 nM. In assay [1], this molecule displayed a Ki of 4 nM.
On to `CC1=CC(C)(C)Nc2ccc3c(c21)/C(=C/c1ccccc1F)Oc1ccccc1-3` [Compound 228, (Z)-5-(2-Fluorobenzylidene)-1,2-dihydro-2,2,4-trimethyl-5H-chromeno[3,4-f]quinoline], for which, on human PR-B, the IC50 was above 10000 nM; the “PR Antagonist CV-1 Cells Efficacy (%)” value is “na (key: na = not active (i.e. efficacy or <20 and potency of >10,000))”; the EC50 amounted to 40 nM. The Ki in assay [1] is 3 nM.
Regarding `CC1C(=O)C(C)(C)Nc2ccc(-c3cc(F)cc(C#N)c3)cc21` (stereo not drawn) [Compound 286, 6-(3-Cyano-5-Fluorophenyl)-1,2-dihydro-2,2,4-trimethyl-3-quinolone], at human PR-B, the “PR Agonist CV-1 Cells Efficacy (%)” value is “na (na = not active (i.e. efficacy or <20 and potency of >10,000))”; the “PR Antagonist CV-1 Cells Efficacy (%)” value stood at 84%; the EC50 was above 10000 nM. In addition, the IC50 on human PR-B (setting [2]) was found to be 155 nM. Moreover, in assay [1] (read-out: PR Binding Ki), the inhibitory constant (Ki) stood at 61 nM.
For the molecule `CC1=CC(C)(C)Nc2c(F)cc(-c3cccc([N+](=O)[O-])c3)cc21` [Compound 291, 8-Fluoro-1,2-dihydro-2,2,4-trimethyl-6-(3-nitrophenyl)quinoline], on human PR-B, the “PR Agonist CV-1 Cells Efficacy (%)” value was “na (na = not active (i.e. efficacy or <20 and potency of >10,000))”; the “PR Antagonist CV-1 Cells Efficacy (%)” value is 79%; the EC50 is above 10000 nM. For the same molecule, the IC50 on human PR-B (setting [2]) was 46 nM. Moreover, in assay [1] (read-out: PR Binding Ki), the Ki turned out to be 4 nM.
With `CC1=CC(C)(C)Nc2ccc(-c3cccc([N+](=O)[O-])c3)c(Cl)c21` [Compound 310, 5-Chloro-1,2-dihydro-2,2,4-trimethyl-6-(3-nitrophenyl)quinoline], on human PR-B, the “PR Agonist CV-1 Cells Efficacy (%)” value is “na (na = not active (i.e. efficacy or <20 and potency of >10,000))”; the “PR Antagonist CV-1 Cells Efficacy (%)” value was 70%; the EC50 is above 10000 nM. Moreover, the IC50 at human PR-B (setting [2]) came to 260 nM. Besides, the Ki in assay [1] (read-out: PR Binding Ki) came out at 7 nM.
On to `CC1(C)C=Cc2c(ccc3c2c(=O)oc2ccc(Cl)cc23)N1` [Compound 313, 9-Chloro-1,2-dihydro-2,2-dimethyl-5-coumarino[3,4-f]quinoline], for which the EC50 at human PR-B amounted to 300 nM. Besides, the IC50 on human PR-B (setting [2]) was 140 nM. In addition, in assay [1] (read-out: PR Binding Ki), the Ki came out at 87 nM.
Turning to `CC1=CC(C)(C)Nc2ccc3c(c21)COc1c(Cl)cccc1-3` [Compound 331, (R/S)-7-Chloro-1,2-dihydro-2,2,4-trimethyl-5H-chromeno[3,4-f]quinoline], at human PR-B, the “PR Agonist CV-1 Cells Efficacy (%)” value was “na (na = not active (i.e. efficacy or <20 and potency of >10,000))”; the “PR Antagonist CV-1 Cells Efficacy (%)” value came to 88%; the EC50 was above 10000 nM. The IC50 at human PR-B (setting [2]) was determined as 210 nM. Further, the Ki in assay [1] (competition with [3H] progesterone, 4° C., 16 hours, read-out: PR Binding Ki) was determined as 273 nM.
On to `CC1(C)C=Cc2c(ccc3c2/C(=C/c2ccccc2)Oc2ccc(Cl)cc2-3)N1` [Compound 368, (Z)-5-Benzylidene-9-chloro-1,2-dihydro-2,2-dimethyl-5H-chromeno[3,4-f]quinoline], for which, on human PR-B, the “PR Agonist CV-1 Cells Efficacy (%)” value was determined as 183%; the “PR Antagonist CV-1 Cells Efficacy (%)” value was “na (na = not active (i.e. efficacy or <20 and potency of >10,000))”; the EC50 was 43 nM. For the same molecule, the IC50 on human PR-B (setting [2]) is above 10000 nM. The Ki in assay [1] (read-out: PR Binding Ki) amounted to 4 nM.

For orientation: Ki means a dissociation constant, usually derived from enzyme kinetics or from competition with a known ligand.
